Data as given in patent US20230015823A1, “METHODS OF ADMINISTERING VOXELOTOR” (Global Blood Therapeutics, Inc., priority 2019, published 2023).

Experiments:
OATP1A2 = OATP1A2 (Homo sapiens, UniProt P46721); experiment: In vitro transporter studies: OATP1A2; type: in vitro ADME
MATE1 = MATE1 (Homo sapiens, UniProt Q96FL8); experiment: In vitro transporter studies: MATE1; type: in vitro ADME
[1] = Effect of acid reducing agent omeprazole on voxelotor; settings: in vivo
[2] = tested on: bacterial reverse mutation; experiment: Reverse mutation bacterial (Ames) test; type: cell-based
Excerpt: Voxelotor was not genotoxic in the reverse mutation bacterial (Ames) test, rat Comet assay, or rat micronucleus assay.

OAT1 = OAT1 (Homo sapiens, UniProt Q4U2R8); experiment: In vitro transporter studies: OAT1; type: in vitro ADME
Sequence of OAT1 (Q4U2R8 whole entry): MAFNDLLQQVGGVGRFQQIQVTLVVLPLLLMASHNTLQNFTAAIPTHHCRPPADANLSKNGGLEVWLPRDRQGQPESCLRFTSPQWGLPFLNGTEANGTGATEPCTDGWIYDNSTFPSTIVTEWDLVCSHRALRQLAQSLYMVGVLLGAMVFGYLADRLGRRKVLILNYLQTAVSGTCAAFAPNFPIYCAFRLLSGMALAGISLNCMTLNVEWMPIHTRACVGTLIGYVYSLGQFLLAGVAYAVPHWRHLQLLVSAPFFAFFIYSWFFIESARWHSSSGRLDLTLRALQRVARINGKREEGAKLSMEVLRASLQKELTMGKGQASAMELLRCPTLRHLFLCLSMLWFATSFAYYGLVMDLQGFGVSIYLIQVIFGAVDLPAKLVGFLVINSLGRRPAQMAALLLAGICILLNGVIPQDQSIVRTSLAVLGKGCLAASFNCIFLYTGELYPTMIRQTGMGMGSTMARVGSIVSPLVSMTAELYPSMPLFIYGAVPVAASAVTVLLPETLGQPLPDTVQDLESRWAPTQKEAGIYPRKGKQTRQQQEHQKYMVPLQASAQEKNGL

CYP1A2 = CYP1A2 (Homo sapiens, UniProt P05177); experiment: Effect of voxelotor on PK of CYP1A2 probe substrate caffeine in healthy subjects; type: in vivo
Sequence of CYP1A2 (P05177 whole entry): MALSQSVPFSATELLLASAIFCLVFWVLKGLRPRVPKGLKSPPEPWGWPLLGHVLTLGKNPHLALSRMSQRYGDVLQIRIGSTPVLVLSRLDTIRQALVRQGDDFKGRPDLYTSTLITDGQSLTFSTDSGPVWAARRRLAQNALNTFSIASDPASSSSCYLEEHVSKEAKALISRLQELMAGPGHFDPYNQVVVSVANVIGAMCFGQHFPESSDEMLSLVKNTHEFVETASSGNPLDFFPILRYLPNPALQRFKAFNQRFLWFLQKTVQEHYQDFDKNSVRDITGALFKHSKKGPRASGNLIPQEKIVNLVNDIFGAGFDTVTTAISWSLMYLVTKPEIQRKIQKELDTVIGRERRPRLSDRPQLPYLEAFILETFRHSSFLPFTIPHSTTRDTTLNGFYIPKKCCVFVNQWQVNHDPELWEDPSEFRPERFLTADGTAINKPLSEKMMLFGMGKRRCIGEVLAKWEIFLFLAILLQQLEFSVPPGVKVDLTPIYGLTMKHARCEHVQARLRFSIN
Method: (§1) During Period 1, subjects received a single dose of caffeine 100 mg, warfarin sodium 10 mg+vitamin K 10 mg, omeprazole 20 mg, and midazolam hydrochloride 2 mg on Day 1. During Period 2, subjects received voxelotor 900 mg QD on Days 1 and 2 followed by 600 mg QD on Day 3, a single dose of caffeine 100 mg, warfarin sodium 10 mg+vitamin K 10 mg, omeprazole 20 mg, and midazolam hydrochloride 2 mg on Day 4, and voxelotor 600 mg QD on Days 4 through 7.
(§2) Whole blood and plasma concentrations of voxelotor and plasma concentrations of caffeine, paraxanthine, S-warfarin, omeprazole, 5-hydroxyomeprazole, midazolam, and 1-hydroxymidazolam were determined using validated assays.

[3] = PK in specific populations (age, sex, body weight, pediatric, renal impairment); type: in vivo, human
Method: The pharmacokinetic parameters of voxelotor were similar in pediatric patients 12 to <17 years and adults.
Following a single 900 mg dose of voxelotor, whole blood exposures in subjects with severe renal impairment (eGFR<30 mL/min/1.73 m^2) were 25% lower compared to healthy controls.
OXBRYTA has not been evaluated in patients with end stage renal disease requiring dialysis.

[4] = Probe substrate study in healthy subjects: voxelotor exposure and safety; type: in vivo, human; settings: alone and in combination with caffeine, warfarin sodium, omeprazole and midazolam hydrochloride
Method: as §1, §2

CYP2C9 = target: T1, CYP2C9 (Homo sapiens, UniProt P11712); experiment: Effect of voxelotor on PK of CYP2C9 probe substrate S-warfarin in healthy subjects; type: in vivo
T1 construct: endogenous in cells; host or cells: healthy subjects, in vivo
T1 sequence (P11712 whole entry): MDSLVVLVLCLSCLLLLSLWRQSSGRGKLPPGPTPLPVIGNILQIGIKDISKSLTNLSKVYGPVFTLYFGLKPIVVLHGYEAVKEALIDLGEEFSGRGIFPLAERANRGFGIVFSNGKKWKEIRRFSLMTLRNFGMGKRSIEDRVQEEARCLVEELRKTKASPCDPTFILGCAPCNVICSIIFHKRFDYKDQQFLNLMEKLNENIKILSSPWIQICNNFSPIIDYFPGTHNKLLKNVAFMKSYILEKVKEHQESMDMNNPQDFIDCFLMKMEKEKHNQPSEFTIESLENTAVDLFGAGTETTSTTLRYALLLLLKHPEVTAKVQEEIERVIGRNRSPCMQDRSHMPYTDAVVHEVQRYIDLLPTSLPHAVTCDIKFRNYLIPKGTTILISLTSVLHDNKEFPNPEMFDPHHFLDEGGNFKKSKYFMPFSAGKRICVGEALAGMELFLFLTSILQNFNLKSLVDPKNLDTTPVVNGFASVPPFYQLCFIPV
Method: as §1, §2

[5] = tested on: sickle cell disease (SCD) patients; experiment: HOPE trial: efficacy in sickle cell disease; type: in vivo, human
Method: The efficacy and safety of OXBRYTA in sickle cell disease (SCD) was evaluated in HOPE, a randomized, double-blind, placebo-controlled, multicenter trial [NCT 03036813]. In this study, 274 patients were randomized to daily oral administration of OXBRYTA 1,500 mg (N=90), OXBRYTA 900 mg (N=92), or placebo (N=92). Patients were included if they had from 1 to 10 vasoocclusive crisis (VOC) events within 12 months prior to enrollment and baseline hemoglobin (Hb) ≥5.5 to ≤10.5 g/dL. Eligible patients on stable doses of hydroxyurea for at least 90 days were allowed to continue hydroxyurea therapy throughout the study. Randomization was stratified by patients already receiving hydroxyurea (yes, no), geographic region (North America, Europe, Other), and age (12 to <17 years, 18 to 65 years). The trial excluded patients who received red blood cell (RBC) transfusions within 60 days and erythropoietin within 28 days of enrollment, had renal insufficiency, uncontrolled liver disease, were pregnant, or lactating.
The majority of patients had HbSS or HbS/beta^0-thalassemia genotype (90%) and were receiving background hydroxyurea therapy (65%). The median age was 24 years (range: 12 to 64 years); 46 (17%) patients were 12 to <17 years of age. Median baseline Hb was 8.5 g/dL (5.9 to 10.8 g/dL). One hundred and fifteen (42%) had 1 VOC event and 159 (58%) had 2 to 10 events within 12 months prior to enrollment.
Efficacy was based on Hb response rate defined as a Hb increase of >1 g/dL from baseline to Week 24 in patients treated with OXBRYTA 1,500 mg versus placebo. […] No outlier subgroups were observed. The distribution of Hb change from baseline for individual patients completing 24 weeks of treatment with OXBRYTA 1,500 mg or placebo is depicted in FIG. 8.
Additional efficacy evaluation included change in Hb and percent change in indirect bilirubin and percent reticulocyte count from baseline to Week 24 (Table 4).

CYP3A4 = CYP3A4 (Homo sapiens, UniProt P08684); experiment: Metabolism (in vitro and in vivo studies); type: in vitro ADME; settings: minor contribution from CYP2C19, CYP2B6 and CYP2C9
Sequence of CYP3A4 (P08684 whole entry): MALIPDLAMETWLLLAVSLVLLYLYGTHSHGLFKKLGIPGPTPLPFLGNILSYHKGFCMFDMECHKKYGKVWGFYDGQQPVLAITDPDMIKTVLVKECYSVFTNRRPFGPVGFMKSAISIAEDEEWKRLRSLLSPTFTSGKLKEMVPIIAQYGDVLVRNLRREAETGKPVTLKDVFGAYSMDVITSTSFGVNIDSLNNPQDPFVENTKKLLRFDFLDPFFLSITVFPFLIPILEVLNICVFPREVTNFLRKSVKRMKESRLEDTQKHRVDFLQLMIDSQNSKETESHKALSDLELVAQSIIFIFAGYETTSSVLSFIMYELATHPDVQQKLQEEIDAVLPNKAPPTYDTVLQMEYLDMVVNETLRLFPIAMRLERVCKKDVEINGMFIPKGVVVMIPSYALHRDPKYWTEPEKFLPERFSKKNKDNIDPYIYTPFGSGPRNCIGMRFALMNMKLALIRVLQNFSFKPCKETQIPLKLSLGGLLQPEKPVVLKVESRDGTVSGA
Excerpt: In vitro and in vivo studies indicate that voxelotor is extensively metabolized through Phase I (oxidation and reduction), Phase II (glucuronidation) and combinations of Phase I and II metabolism.

[6] = Excretion after administration of radiolabeled voxelotor; type: in vivo
Excerpt: Following the administration of radiolabeled voxelotor, approximately 62.6% of the dose and its metabolites are excreted into feces (33.3% unchanged) and 35.5% in urine (0.08% unchanged).

P-gp = P-gp (Homo sapiens, UniProt P08183); experiment: Effect of voxelotor on P-gp: concomitant digoxin; type: in vivo; settings: concomitant use
Sequence of P-gp (P08183 whole entry): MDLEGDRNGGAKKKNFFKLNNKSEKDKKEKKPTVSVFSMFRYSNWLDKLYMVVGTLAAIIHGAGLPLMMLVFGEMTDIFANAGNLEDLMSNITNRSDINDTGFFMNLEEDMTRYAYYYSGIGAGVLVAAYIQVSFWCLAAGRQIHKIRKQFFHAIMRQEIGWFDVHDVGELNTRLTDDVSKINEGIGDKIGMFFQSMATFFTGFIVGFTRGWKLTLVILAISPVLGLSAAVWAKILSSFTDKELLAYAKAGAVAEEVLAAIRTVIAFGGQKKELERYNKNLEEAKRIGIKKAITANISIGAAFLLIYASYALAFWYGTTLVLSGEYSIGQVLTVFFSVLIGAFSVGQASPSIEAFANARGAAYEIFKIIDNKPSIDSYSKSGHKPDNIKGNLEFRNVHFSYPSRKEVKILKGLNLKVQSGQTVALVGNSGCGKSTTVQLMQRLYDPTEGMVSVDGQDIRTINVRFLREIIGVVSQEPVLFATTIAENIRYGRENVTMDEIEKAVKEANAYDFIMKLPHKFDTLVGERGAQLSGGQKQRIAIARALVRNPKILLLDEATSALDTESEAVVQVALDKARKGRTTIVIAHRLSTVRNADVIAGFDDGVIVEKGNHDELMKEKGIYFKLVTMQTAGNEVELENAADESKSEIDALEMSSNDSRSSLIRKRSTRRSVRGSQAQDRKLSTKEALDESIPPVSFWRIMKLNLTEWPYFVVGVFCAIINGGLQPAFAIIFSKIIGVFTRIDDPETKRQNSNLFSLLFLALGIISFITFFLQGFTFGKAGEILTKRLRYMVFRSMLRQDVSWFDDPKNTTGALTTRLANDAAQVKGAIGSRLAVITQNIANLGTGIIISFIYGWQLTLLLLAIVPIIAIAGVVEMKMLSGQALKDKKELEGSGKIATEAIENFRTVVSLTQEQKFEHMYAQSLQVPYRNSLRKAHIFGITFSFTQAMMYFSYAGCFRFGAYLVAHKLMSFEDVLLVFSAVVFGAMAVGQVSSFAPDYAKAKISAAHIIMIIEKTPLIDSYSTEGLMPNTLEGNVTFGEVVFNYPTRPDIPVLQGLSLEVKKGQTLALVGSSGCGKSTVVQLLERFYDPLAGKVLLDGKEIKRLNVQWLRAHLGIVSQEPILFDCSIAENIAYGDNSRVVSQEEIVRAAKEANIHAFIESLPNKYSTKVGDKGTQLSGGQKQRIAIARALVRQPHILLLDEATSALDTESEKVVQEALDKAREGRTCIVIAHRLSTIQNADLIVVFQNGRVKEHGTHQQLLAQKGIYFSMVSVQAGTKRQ

[7] = healthy subjects, multiple doses of voxelotor 900/600 mg QD

Sequence of MATE1 (Q96FL8 whole entry): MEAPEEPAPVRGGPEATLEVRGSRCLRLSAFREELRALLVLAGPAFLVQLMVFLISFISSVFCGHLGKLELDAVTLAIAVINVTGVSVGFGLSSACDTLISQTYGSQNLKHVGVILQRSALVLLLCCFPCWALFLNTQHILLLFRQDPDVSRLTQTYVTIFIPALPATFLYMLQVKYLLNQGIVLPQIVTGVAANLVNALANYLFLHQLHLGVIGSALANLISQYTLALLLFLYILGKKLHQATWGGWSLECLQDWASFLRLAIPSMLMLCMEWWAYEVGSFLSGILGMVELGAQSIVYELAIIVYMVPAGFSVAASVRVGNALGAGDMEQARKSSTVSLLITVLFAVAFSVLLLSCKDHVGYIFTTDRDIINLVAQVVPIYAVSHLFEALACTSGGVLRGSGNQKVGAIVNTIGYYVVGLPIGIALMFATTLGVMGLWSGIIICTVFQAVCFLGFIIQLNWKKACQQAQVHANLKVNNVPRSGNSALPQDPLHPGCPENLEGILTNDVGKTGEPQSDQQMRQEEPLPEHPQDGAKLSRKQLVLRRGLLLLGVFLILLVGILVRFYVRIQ
Sequence of OATP1A2 (P46721 whole entry): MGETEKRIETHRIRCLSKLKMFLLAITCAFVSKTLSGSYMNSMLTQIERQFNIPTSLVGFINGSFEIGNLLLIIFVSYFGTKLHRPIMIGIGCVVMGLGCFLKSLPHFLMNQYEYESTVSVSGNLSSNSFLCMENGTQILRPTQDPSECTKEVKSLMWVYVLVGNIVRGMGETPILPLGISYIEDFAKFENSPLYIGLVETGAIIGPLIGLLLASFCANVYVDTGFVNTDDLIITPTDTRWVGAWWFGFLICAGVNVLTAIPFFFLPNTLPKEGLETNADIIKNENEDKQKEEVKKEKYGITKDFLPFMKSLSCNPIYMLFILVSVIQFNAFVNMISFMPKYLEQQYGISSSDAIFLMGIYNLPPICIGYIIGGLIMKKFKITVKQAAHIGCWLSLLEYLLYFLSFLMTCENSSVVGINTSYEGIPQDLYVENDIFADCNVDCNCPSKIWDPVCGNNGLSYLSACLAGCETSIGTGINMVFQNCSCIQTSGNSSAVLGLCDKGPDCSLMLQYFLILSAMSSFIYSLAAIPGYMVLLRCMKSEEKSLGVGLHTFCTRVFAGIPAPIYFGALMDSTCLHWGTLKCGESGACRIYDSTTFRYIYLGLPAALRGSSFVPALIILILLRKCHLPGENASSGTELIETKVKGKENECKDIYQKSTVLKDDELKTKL

CC(C)n1nccc1-c1ncccc1COc1cccc(O)c1C=O [voxelotor, 2-hydroxy-6-((2-(1-isopropyl-1H-pyrazol-5-yl)pyridin-3-yl)methoxy)benzaldehyde]
substrate of OATP1A2 (OATP1A2): not a substrate | inhibition of MATE1 (MATE1): not an inhibitor | effect of co-administered omeprazole (proton pump inhibitor) on voxelotor exposure [1]: did not alter voxelotor exposure | genotoxicity [2]: not genotoxic | inhibition of OAT1 (OAT1): not an inhibitor | effect of voxelotor on PK of CYP1A2 probe substrate (caffeine) (CYP1A2; [7]): no clinically meaningful effect | inhibition of CYP1A2 in vivo (CYP1A2; human, in vivo): not | differences in pharmacokinetics based on age (12 to 59 years), sex, body weight (28 to 135 kg), or mild to severe renal impairment (CLcr 15-89 mL/min) ([3]; in vivo): No clinically significant differences | effect of renal function on the excretion of voxelotor ([3]; in vivo): no clinically significant effect | pharmacokinetic parameters in pediatric patients 12 to <17 years vs adults ([3]; in vivo): similar | whole blood exposures lower compared to healthy controls ([3]; severe renal impairment (eGFR<30 mL/min/1.73 m^2), single 900 mg dose): 25% | unbound plasma concentrations vs healthy controls ([3]; severe renal impairment, single 900 mg dose): comparable | safety and tolerability [4]: safe and well tolerated | effect of voxelotor on PK of CYP2C9 probe substrate (S-warfarin) (CYP2C9; [7]): no clinically meaningful effect | inhibition of CYP2C9 in vivo (CYP2C9; human, in vivo): not | Hemoglobin, adjusted mean change from baseline to Week 24 ([5]; 1,500 mg QD (N = 90)): 1.14 g/dL | Indirect Bilirubin, adjusted mean percent change from baseline to Week 24 ([5]; 1,500 mg QD (N = 90)): −29.08% | Percent Reticulocyte Count, adjusted mean percent change from baseline to Week 24 ([5]; 1,500 mg QD (N = 90)): −19.93% | Hb response rate (Hb increase of >1 g/dL from baseline to Week 24) ([5]; 1,500 mg daily oral, 46/90, placebo 6.5%): 51.1% | enzymes mediating oxidation of voxelotor (CYP3A4): mediated primarily by CYP3A4 | dose and its metabolites excreted in urine [6]: 35.5% | dose and its metabolites excreted into feces [6]: approximately 62.6% | dose excreted unchanged in urine [6]: 0.08% | dose excreted unchanged into feces [6]: 33.3% | effect on digoxin (a P-gp substrate) (P-gp): did not alter digoxin to a clinically relevant extent
